Results on four compounds are retold here after patent US20050042674A9, “Common ligand mimics: thiazolidinediones and rhodanines” (priority 2002, published 2005).

Experiment [1] concerns the target 1-deoxy-D-xylulose-5-phosphate reductase (DOXPR) (Escherichia coli, UniProt P45568). Kind of experiment: DOXPR kinetic assay, spectrophotometric oxidation of NADPH at 340 nm. As to conditions: Examples 36/37, FIG. 16/17. The experiment is classed as biochemical. The procedure: DOXPR was diluted in 10 mM HEPES at a pH of 7.4.
Solutions of the inhibitors in DMSO were prepared to provide a final DMSO concentration of 5% of the total assay volume. […] The oxidation reaction was then initiated with 10 μl of DOXP reductoisomerase (10 μg/ml). […] Reading of the samples was continued until 300 seconds. […] The substrate was kept at a level at least 10 times the Km.

Experiment [2] deals with T1, lactate dehydrogenase (LDH) (Oryctolagus cuniculus, UniProt P13491).
T1 construct: LDH from Rabbit Muscle; from tissue; host or cells: rabbit muscle
The experiment in a line: LDH kinetic assay, spectrophotometric oxidation of NADH at 340 nm. The experiment is classed as biochemical, Rabbit. The method, then: Solutions of 100 μl of the inhibitors in DMSO were prepared to provide a final DMSO concentration of 5% of the total assay volume. […] The reaction was then initiated with 10 μl of LDH from Rabbit Muscle (0.5 μ/ml; 1:2000 dilution of 1.0 mg/ml). […] Reading of the samples was continued until 300 seconds. […] The substrate was kept at a level at least 10 times the Km.

For experiment [3], the target named is inosine-5′-monophosphate dehydrogenase (IMPDH). Kind of experiment: IMPDH kinetic assay, spectrophotometric reduction of NAD+ at 340 nm. It is filed as biochemical. As to conditions: for IC50: Examples 36/37, FIG. 16/17. The method, then:
Solutions of 100 μl of the inhibitors in DMSO were prepared to provide a final DMSO concentration of 5% of the total assay volume. These solutions were incubated for 6 minutes at 37° C. in a 992 μl of a solution containing 0.1 M Tris-HCl, pH 8.0, 0.25 M KCl, 0.3% glycerol, 30 μM NAD+, and 600 μM IMP (inosine monophosphate). The reaction was then initiated with 8 μμl of IMPDH (0.75 μg/ml). […] Reading of the samples was continued until 300 seconds. Cuvette #1 contained the control reaction (no inhibitor), and cuvette #2 contained the positive control reaction in which Cibacron Blue was substituted for inhibitor. The substrate was kept at a level at least 10 times the Km.

The target in experiment [4] is T2, alcohol dehydrogenase (ADH) (Saccharomyces cerevisiae, UniProt P00330).
T2 construct: ADH from Bakers Yeast; from tissue; host or cells: bakers yeast
T2 sequence (P00330 1-348): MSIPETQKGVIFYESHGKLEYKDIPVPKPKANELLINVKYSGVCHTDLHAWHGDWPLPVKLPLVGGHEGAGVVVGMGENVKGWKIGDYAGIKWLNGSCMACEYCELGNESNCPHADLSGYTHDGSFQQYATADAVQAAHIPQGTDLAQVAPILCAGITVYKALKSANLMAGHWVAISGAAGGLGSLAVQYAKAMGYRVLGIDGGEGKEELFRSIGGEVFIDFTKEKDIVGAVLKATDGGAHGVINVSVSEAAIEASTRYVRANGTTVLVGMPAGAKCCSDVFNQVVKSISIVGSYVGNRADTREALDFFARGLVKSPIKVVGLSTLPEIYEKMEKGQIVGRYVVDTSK
The experiment in a line: ADH kinetic assay, spectrophotometric reduction of NAD+ at 340 nm. It is filed as biochemical, Bakers Yeast. As to conditions: Examples 36/37, FIG. 16/17. The procedure: Solutions of 100 μl of the inhibitors in DMSO were prepared to provide a final DMSO concentration of 5% of the total assay volume. […] The reaction was then initiated with 10 μl of ADH from Bakers Yeast (3.3 μg/ml; 1:400 dilution of 1.0 mg/ml). […] Reading of the samples was continued until 300 seconds. […] The substrate was kept at a level at least 10 times the Km. The final concentration of pyruvate was about 2.5 mM.
Where only a simple read was desired, as in the case of NAD+concentration determination, 13 μl (10 M stock) of ethanol was used to drive the reaction, and 10 μl of pure enzyme (1 mg/ml) was used. NAD+was soluble at 2 mM, which allowed the concentration determination step to be skipped. In this situation, the procedure was as follows. All of the ingredients except for the enzyme were mixed together. The solution was mixed well and the absorbance at 340 nm read. The enzyme was added and read again at OD 340 after the absorbance stopped changing, generally 10 to 15 minutes after the enzyme was added.

Experiment [5] addresses dihydrodipicolinate reductase (DHPR) (Escherichia coli, UniProt P04036). Kind of experiment: DHPR kinetic assay, spectrophotometric oxidation of NADPH at 340 nm. It is filed as biochemical. As to conditions: Examples 36/37, FIG. 16/17. The method, then: DHPR was diluted in 10 mM HEPES at a pH of 7.4. DHPS (dihydrodipicolinate synthase) was not diluted and was stored in eppindorf tubes.
The L-ASA (L-aspartate semialdehyde) solution was prepared in the following manner. […] stock solution of ASA was prepared. 100 μl of the ASA stock solution was mixed with 150 μl of concentrated NaHCO3 and 375 μl of H2O. For use in the assay, 28.8 mM L-ASA was equal to 625 μl of the solution. The L-ASA stock solution was kept at a temperature of −20° C. After dilution, the pH of the 28.8 mM solution was checked and maintained between 1 and 2.
The solution for background detection was a 945 μl solution containing 0.1 HEPES (pH 7.8), 1 mM pyruvate, 6 μM NADPH, 40 μM L-ASA, and 7 μl of 1 mg/ml DHPS at 25° C. in the volumes provided above. The sample solution was then mixed and incubated for 10 minutes. Next, 500 nM solutions of the inhibitors and enough DMSO to provide a final DMSO concentration of 5% of the total assay volume were added. The solution was mixed and incubated for an additional 6 minutes.
In DHPR samples, 5 μl of the diluted DHPR enzyme were added. The sample was mixed for 20 seconds and then the reaction was run for 10 minutes. […] Reading of the samples was continued until 300 seconds. […] The substrate was kept at a level at least 10 times the Km. The final concentration of L-ASA was about 1 mM.

For experiment [6], the target named is dihydrofolate reductase (DHFR) (UniProt P00374). Kind of experiment: DHFR kinetic assay, spectrophotometric oxidation of NADH at 340 nm. It is filed as biochemical. The procedure:
H2 folate was dissolved in DMSO to about 10 mM and then diluted with water to a concentration of 0.1 mM.
Solutions of 100 μl of the inhibitors in DMSO were prepared to provide a final DMSO concentration of 5% of the total assay volume. […] The oxidation reaction was then initiated with 8 μl of DHFR (0.047 mg/ml). […] Reading of the samples was continued until 300 seconds. Cuvette #1 always contained the control reaction (no inhibitor), and cuvette #2 always contained the positive control reaction in which Cibacron Blue at 3 μM was substituted for inhibitor to yield […] inhibition. The substrate was kept at a level at least 10 times the Km.

Experiment [7] deals with glyceraldehyde-3-phosphate dehydrogenase (GAPDH) (Escherichia coli, UniProt P0A9B2). Kind of experiment: GAPDH kinetic assay, spectrophotometric reduction of NAD+ at 340 nm. It is filed as biochemical, E. coli. As to conditions: Examples 36/37, FIG. 16/17. The method, then:
Reading of the samples was continued until 300 seconds. […] Cuvette #1 contained the control reaction (no inhibitor).
GAP for use in this experiment was deprotected from the diethyl acetal in the following manner. Water was boiled in recrystallizing dish. […] The tube was then immersed, while shaking, in the boiling water for 3 minutes.

For experiment [8], the target named is Human Aldose Reductase (AR) (Homo sapiens, UniProt P15121). Kind of experiment: AR kinetic assay, spectrophotometric measurement of enzyme activity at 340 nm. The experiment is classed as biochemical. The method, then:
Solutions of 100 μl of the inhibitors in DMSO were prepared to provide a final DMSO concentration of 5% of the total assay volume. […] The reaction was then initiated with 10 μl of Human Aldose Reductase (1:5 dilution of 0.55 mg/ml). […] Reading of the samples was continued until 300 seconds. The final DMSO concentration in the cuvette was 5%. […] The substrate was kept at a level at least 10 times the Km.

Experiment [9] concerns the target isopropylmalate dehydrogenase (IPMDH) (Escherichia coli, UniProt P30125). Kind of experiment: IPMDH kinetic assay, spectrophotometric reduction of NAD at 340 nm. The experiment is classed as biochemical, E. coli. As to conditions: Examples 36/37, FIG. 16/17. The procedure:
Inhibitor was incubated for 5 minutes at 37° C. in a 990 μl of a solution containing 20 mM potassium phosphate, pH 7.6, 0.3 M potassium chloride, 0.2 mM manganese chloride, 109 μM NAD, and 340 μM DL-threo-3-isopropylmalic acid (IPM). […] Reading of the samples was continued until 300 seconds. The final concentration of DMSO in the cuvette was 5% of the total assay volume. […] The substrate was kept at a level at least 10 times the Km.

Experiment [10] concerns the target T3, HMG CoA reductase (HMGCoAR) (UniProt P04035).
T3 sequence (P04035 1-888): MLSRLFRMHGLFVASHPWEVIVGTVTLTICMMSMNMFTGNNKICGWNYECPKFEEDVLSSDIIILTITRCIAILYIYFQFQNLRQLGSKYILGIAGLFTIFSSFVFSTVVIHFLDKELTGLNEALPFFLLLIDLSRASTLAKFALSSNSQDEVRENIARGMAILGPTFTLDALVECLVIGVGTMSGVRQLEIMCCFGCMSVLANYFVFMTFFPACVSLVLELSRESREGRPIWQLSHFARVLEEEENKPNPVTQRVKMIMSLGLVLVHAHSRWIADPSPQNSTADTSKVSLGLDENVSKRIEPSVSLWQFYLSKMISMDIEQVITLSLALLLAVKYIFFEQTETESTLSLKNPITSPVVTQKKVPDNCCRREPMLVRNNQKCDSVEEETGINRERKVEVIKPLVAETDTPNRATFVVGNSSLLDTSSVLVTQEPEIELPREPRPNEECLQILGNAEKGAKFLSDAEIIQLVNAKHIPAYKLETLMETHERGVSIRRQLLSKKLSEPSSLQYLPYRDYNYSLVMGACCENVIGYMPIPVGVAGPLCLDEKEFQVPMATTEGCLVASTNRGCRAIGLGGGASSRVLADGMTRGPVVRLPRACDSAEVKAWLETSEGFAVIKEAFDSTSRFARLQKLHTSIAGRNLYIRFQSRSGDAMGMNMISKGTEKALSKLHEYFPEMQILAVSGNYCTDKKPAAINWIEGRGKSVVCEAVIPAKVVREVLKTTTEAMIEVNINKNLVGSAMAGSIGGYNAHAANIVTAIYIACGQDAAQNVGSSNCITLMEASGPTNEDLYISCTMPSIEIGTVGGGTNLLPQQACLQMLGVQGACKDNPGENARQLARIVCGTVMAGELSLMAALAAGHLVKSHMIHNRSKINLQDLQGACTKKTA
The experiment in a line: HMGCoAR kinetic assay, spectrophotometric oxidation of NADPH at 340 nm. It is filed as biochemical. As to conditions: Examples 36/37, FIG. 16/17.
Method: For HMGCoAR analysis, the compounds were screened using a kinetic protocol that spectrophotometrically evaluates oxidation of NADPH.
Stock solutions of each of the reagents were prepared in the following concentrations. Dilutions of the stock solutions were prepared prior to running the assay in the concentrations indicated below. The enzyme was diluted in 1 M NaCl. To prepare the dilution buffer, 10 μl of HMGCoAR (1 mg/ml) was mixed with 133 μl of 3 M NaCl solution and 257 μl of 25 mM KH2PO4 buffer (pH 7.5; containing 50 mM NaCl, μl mM EDTA (ethylenediaminetetraacetic acid), and 5 mM DTT (dithiothreitol).
The HMGCoAR reaction was monitored at 340 nm prior to and after addition of the inhibitor to detect background reaction with the inhibitor. Solutions of 500 nM of the inhibitors in DMSO were prepared to provide a final DMSO concentration of 2% of the total assay volume. […] The reaction was then initiated with 5 μl of HMGCoAR enzyme (1:40 dilution of 0.65 mg/ml). After the enzyme was added, the solution was mixed for 20 seconds, and the reaction was run for 10 minutes. After a 50 second lag, the samples were read in a Cary spectrophotometer at 340 nm. Reading of the samples was continued until 300 seconds. […] The substrate was kept at a level at least 10 times the Km.

As a reminder, the IC50 is the concentration that gives 50% inhibition.

Each structure is given as a SMILES string. Values joined by “and” are separate entries in the source; they are usually repeats but may differ in a detail not shown here. Equal values may be shown once. Read-outs that look alike come from different tables or passages of the source.

Chain of 1-deoxy-D-xylulose-5-phosphate reductase (DOXPR) (P45568 whole entry): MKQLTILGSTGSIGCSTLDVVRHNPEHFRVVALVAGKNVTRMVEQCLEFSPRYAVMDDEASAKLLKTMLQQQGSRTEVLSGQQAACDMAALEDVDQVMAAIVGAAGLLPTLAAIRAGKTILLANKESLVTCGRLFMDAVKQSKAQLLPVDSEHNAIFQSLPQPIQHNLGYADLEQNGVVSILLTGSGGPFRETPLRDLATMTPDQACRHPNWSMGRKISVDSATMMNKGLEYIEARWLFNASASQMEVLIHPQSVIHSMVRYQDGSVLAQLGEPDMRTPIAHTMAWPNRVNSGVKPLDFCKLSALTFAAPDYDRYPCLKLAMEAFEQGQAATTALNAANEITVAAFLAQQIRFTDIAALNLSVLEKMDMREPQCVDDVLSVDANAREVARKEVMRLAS
Chain of dihydrodipicolinate reductase (DHPR) (P04036 whole entry): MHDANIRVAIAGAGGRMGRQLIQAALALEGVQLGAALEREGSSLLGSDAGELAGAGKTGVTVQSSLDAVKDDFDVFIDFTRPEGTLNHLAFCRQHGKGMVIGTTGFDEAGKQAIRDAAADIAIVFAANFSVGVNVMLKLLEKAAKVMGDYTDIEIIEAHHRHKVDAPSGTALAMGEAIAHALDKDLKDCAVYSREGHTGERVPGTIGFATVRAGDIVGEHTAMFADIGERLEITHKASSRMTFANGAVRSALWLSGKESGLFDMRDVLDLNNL
Chain of dihydrofolate reductase (DHFR) (P00374 whole entry): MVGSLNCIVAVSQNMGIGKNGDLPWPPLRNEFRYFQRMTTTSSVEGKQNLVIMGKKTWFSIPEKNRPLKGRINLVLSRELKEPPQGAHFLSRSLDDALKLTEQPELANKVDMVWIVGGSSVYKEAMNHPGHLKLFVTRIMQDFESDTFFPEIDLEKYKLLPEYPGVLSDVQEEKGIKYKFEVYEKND
Chain of glyceraldehyde-3-phosphate dehydrogenase (GAPDH) (P0A9B2 whole entry): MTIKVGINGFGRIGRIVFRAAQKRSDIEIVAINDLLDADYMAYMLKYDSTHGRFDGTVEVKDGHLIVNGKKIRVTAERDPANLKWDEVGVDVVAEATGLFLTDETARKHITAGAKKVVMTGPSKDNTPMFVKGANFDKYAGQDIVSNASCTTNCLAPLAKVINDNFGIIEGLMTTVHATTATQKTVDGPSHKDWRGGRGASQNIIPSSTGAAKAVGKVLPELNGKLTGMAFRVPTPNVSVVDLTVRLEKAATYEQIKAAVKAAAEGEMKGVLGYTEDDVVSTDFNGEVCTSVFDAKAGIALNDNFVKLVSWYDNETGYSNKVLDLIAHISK
Chain of isopropylmalate dehydrogenase (IPMDH) (P30125 whole entry): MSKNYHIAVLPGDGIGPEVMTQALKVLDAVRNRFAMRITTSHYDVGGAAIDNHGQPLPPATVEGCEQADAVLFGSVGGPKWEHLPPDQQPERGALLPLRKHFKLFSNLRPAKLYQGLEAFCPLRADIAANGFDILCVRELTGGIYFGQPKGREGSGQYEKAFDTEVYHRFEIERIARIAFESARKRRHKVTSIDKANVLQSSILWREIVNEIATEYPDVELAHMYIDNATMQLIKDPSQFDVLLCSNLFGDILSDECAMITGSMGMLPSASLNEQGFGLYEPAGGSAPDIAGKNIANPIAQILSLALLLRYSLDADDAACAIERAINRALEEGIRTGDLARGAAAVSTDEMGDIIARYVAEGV

As to `O=C1NC(=O)C(=Cc2ccc(-c3ccc(O)c(C(=O)O)c3)o2)S1` [Compound 5e, 5-[5-(2,4-dioxo-thiazolidin-5-ylidenemethyl)-furan-2-yl]-2-hydroxy-benzoic acid], the IC50 in [1] (read-out: IC50 for DOXPR) was above 100 µM; in experiment [2] (Examples 36/37, FIG. 16/17), 46 µM; in experiment [3], 2.15 µM; in experiment [4] it was 21 µM; in experiment [5] (read-out: IC50 for DHPR) it was above 200 µM; in experiment [7] (read-out: IC50 for GAPDH), above 200 µM. In [9], this compound came in with an IC50 above 50 µM. For the same compound, the “inhibition of DHFR” value in experiment [6] (Example 37, result in words) is “No inhibition”. For the same compound, the “inhibition of AR” value in experiment [8] (Examples 36/37, result in words) is on record as “No inhibition”.

Regarding `O=C1NC(=O)C(=Cc2ccc(-c3cccc(C(=O)O)c3)o2)S1` [Compound 5b, 3-[5-(2,4-dioxo-thiazolidin-5-ylidenemethyl)-furan-2-yl]-benzoic acid], the IC50 was above 400 µM in experiment [1] (IC50 for DOXPR), above 400000 nM in [10], above 400 µM in experiment [5] (IC50 for DHPR) and above 400 µM in experiment [7] (IC50 for GAPDH). Further, in experiment [3] (Example 37, result in words), the “inhibition of IMPDH” value is “No inhibition”.

`O=C1NC(=S)SC1=Cc1ccc(-c2ccc(O)c(C(=O)O)c2)o1` [Compound 7e, 2-hydroxy-5-[5-(4-oxo-2-thioxo-thiazolidin-5-ylidenemethyl)-furan-2-yl]-benzoic acid]: the IC50 was 1.6 µM in experiment [1] (IC50 for DOXPR); 143 nM in experiment [10]; 0.34 µM in [2] (Example 37, FIG. 17); 3.4 µM in [4]; 2.1 µM in [5] (IC50 for DHPR); 4.3 µM in experiment [6] (read-out: IC50 for DHFR; Examples 36/37, FIG. 16/17).

Take `O=C1NC(=O)C(=Cc2ccc(-c3ccc(C(=O)O)cc3)o2)S1` [Compound 5a, 4-[5-(2,4-dioxo-thiazolidin-5-ylidenemethyl)-furan-2-yl]-benzoic acid]: the IC50 in experiment [3] is 58.8 µM; in experiment [3] (listed as Sa), above 200 µM; in [4] it was 116 µM and 140 µM; in [5] (read-out: IC50 for DHPR) it was above 200 µM; in [6] (Examples 36/37, FIG. 16/17; read-out: IC50 for DHFR) it was above 75 µM; in experiment [7] (read-out: IC50 for GAPDH), above 200 µM. Besides, the IC50 in [8] (Examples 36/37, FIG. 16/17) is 2.26 µM and 4.1 µM; in experiment [9], above 200 µM. Also, the “inhibition of DHFR” value in experiment [6] (Example 37, result in words) is “No inhibiiton”.
